The text below walks through data of US20200171056A1, “SULFONYLUREA COMPOUNDS IN THE TREATMENT OF DISEASE ASSOCIATED WITH UV-INDUCED DAMAGE” (CeMM - Forschungszentrum für Molekulare Medizin GmbH, priority 2017, published 2020).

Each structure is given as a SMILES string.

Holding throughout (format): cell-based, human
The test system of assay [1] is DNA repair knockout HAP1 cell lines. Nature of the assay: Percentage of rescue in panel of 20 DNA repair-deficient cell lines after UV. From the text:
FIG. 3. Loss of MUTYH mimics acetohexamide function A. Bubble plot displaying the percentage of rescue, defined as the difference in survival of a given cell line treated with acetohexamide compared to untreated, following UV irradiation. The light grey, dark grey bubbles highlight ΔMUTYH, ΔXPA […], and black bubbles indicate the rest of the knockout cell lines and WT HAP1. The size of the bubbles indicates the significance as log10 (p-value). BER: base excision repair; NER: nucleotide excision repair; DSBR; double-strand break repair; MMR: mis-match repair; FA: Fanconi aneamia; DR; direct reversal; TLS; translesion synthesis. B. Survival of WT and MUTYH-deficient (ΔMUTYH) cells with or without 0.5 mM acetohexamide treatment, followed by UV irradiation, as assessed after 3 days using CellTitre-Glo. Loss of MUTYH protein was confirmed by immunoblotting using an anti-MUTYH antibody. ACTIN was used as a loading control. C. Deletion of MUTYH in WT HAP1 or an XPA-deficient background was confirmed by immunoblotting using an anti-MUTYH antibody. TUBULIN was used as a loading control. D. Clonogenic survival of WT, ΔXPA or ΔXPA-MUTYH cells irradiated with UV at the indicated doses or left untreated. Cells were fixed and stained 10 days later.
Since acetohexamide enhanced the clearance of CPDs in NER-deficient cells, it was speculated that its mode-of-action could be via one the known DNA excision repair pathways. Thus, a panel of 20 DNA repair-deficient cell lines was prepared using CRISPR-Cas9, representing all DNA repair pathways. Pol kappa (POLK) was selected to represent translesion synthesis (TLS) polymerases since it has roles in the repair synthesis step of NER. Subsequently, these cell lines (as well as two wildtype controls) were treated with acetohexamide and exposed to UV irradiation (FIG. 3A). […]
The DNA repair knockout cell lines were generated in collaboration with Horizon Genomics. […] Subsequently, the genomic DNA was isolated using Direct PCR-Cell Kit (PeqLab) and the region targeted by the gRNA was PCR amplified and analyzed by Sanger sequencing. […]

The subject of another assay is CPDs in XPA^Δ/Δ cells. Nature of the assay: Immunofluorescence for cyclobutane pyrimidine dimers. To be noted: 0.5 mM for 6 hours. The method, then:
A. Dose-response curve of WT and ΔXPA cells treated with or without 0.5 mM acetohexamide for 6 hours, followed by illudin S treatment. Survival was assessed after 3 days using CellTiter-Glo. B. Colony formation of WT fibroblasts (BJ) and XPA-patient derived fibroblasts (XPA^Δ/Δ) treated with or without 0.5 mM acetohexamide for 6 hours, followed by UV irradiation (as indicated) and then kept in culture for 10 days. C. WT BJ and XPA^Δ/Δ fibroblastoid cells were treated with 0.5 mM acetohexamide for 6 hours, irradiated with 15 J/M^2 and then fixed and immunostained with an anti-cyclobutane pyrimidine dimer (CPD) antibody at the indicated times. Nuclear DNA was counterstained with DAPI. Scale bar, 10 μm. D. Scatter plot displaying the quantification of CPD intensities per nucleus of WT and XPA^Δ/Δ cells in the presence or absence of 0.5 mM acetohexamide, of more than 100 cells. Red lines within each column represent median intensities. A.u.=arbitrary unit.
For measurement of cyclobutane pyrimidine dimers (CPDs), cells were seeded onto coverslips (VWR) in 5 cm dishes. On the following day, cells were treated as indicated. Next, they were washed twice with PBS and fixed with 4% paraformaldehyde (PFA) for 10 minutes at room temperature (RT), then permeabilized with 0.5% Triton X-100 in PBS for 5 minntes at RT. […] Quantification was performed using CellProfiler.

In a further assay the test system is ΔXPA-MUTYH HAP1 cells. Nature of the assay: Colony formation of double knockout after UV irradiation. To be noted: 0.5 mM for 6 hours, 15 J/M^2 UV, 10 days (FIG. 4C). As for the experimental part:
A. WT HAP1 cells were treated with or without 0.5 mM acetohexamide for 6 hours, then released into compound-free media for the indicated time points and immunoblotted with an anti-MUTYH antibody. ACTIN was used as a loading control. B. WT HAP1 cells were either treated with 0.5 mM acetohexamide alone or with 10 μM of the proteasome inhibitor MG132 for 6 hours and analyzed by immunoblotting using an anti-MUTYH antibody. C. Left panel: colony formation of the WT, ΔXPA or ΔXPA-MUTYH HAP1 cells treated with or without 0.5 mM acetohexamide for 6 hours, followed by 15 J/M^2 UV irradiation and then kept in culture for 10 days. Right panel: Macroscopic colonies were stained with crystal violet and quantified. D. WT, ΔXPA or ΔXPA-MUTYH HAP1 cells were treated with 15 J/M^2 UV or left untreated, then kept in culture for the indicated recovery times and analyzed by dot blot for the presence of CPDs within genomic DNA. […] F. Survival of WT and ΔMULE HAP1 cells exposed to UV irradiation at different doses and assessed after 3 days, using CellTitre-Glo.
Cells were treated with UV at different doses with or without drug pre-treatment and then seeded into 6-well plates, at a density of 1,000 cells/well, in duplicates for 2 weeks until visible colonies were formed. […] Next, the staining solution was removed and the wells were washed, imaged and quantified using CellProfiler.

Regarding `CC(=O)c1ccc(S(=O)(=O)NC(=O)NC2CCCCC2)cc1` [acetohexamide], the “protective effect against UV-induced damage (percentage of rescue), knockout cell lines and wildtype” value in assay [1] (all knockout lines other than ΔMUTYH (FIG. 3A)) is given as “comparable protective effect against UV-induced damage on all the knockout cell lines tested (and also to wildtype cells)”. Further, the “protective effect on NER-deficient cell lines” value in assay [1] (knock out cell lines absent of XPA, XPC, ERCC8 (CSA), ERCC6 (CSB) or XPV (POLH)) is reported as “general protective effect on NER-deficient cell lines”. In assay [1] (ΔMUTYH (FIG. 3A)), the “protective effect against UV-induced damage (percentage of rescue), cells lacking MUTYH” value was “no effect on cells lacking MUTYH”. Besides, in the assay with CPDs in XPA^Δ/Δ cells (15 J/M^2 (FIG. 2C-D)), the “initial amount of CPDs” value is listed as “did not affect the initial amount of CPDs”. For the same molecule, the “clearance of CPDs” value in the assay on CPDs in XPA^Δ/Δ cells (XPA^Δ/Δ cells, 15 J/M^2, 24 hours post UV (FIG. 2C-D)) was “led to the clearance of CPDs in XPA^Δ/Δ cells”. The “survival of double knockout ΔXPA-MUTYH upon UV treatment” value in the assay on ΔXPA-MUTYH HAP1 cells is “did not lead to a further increase in survival upon UV treatment”.
